We go through one compound from patent US12358960B2, “Selective targeting of ubiquitin- and ubiquitin-like E1-activating enzymes by structurally-stabilized peptides” (Dana-Farber Cancer Institute, Inc., priority 2019, dated 2025).

This assay addresses T1, Human E1 activating enzyme UBA1 (Homo sapiens, UniProt P22314).
T1 sequence (P22314 1-1058): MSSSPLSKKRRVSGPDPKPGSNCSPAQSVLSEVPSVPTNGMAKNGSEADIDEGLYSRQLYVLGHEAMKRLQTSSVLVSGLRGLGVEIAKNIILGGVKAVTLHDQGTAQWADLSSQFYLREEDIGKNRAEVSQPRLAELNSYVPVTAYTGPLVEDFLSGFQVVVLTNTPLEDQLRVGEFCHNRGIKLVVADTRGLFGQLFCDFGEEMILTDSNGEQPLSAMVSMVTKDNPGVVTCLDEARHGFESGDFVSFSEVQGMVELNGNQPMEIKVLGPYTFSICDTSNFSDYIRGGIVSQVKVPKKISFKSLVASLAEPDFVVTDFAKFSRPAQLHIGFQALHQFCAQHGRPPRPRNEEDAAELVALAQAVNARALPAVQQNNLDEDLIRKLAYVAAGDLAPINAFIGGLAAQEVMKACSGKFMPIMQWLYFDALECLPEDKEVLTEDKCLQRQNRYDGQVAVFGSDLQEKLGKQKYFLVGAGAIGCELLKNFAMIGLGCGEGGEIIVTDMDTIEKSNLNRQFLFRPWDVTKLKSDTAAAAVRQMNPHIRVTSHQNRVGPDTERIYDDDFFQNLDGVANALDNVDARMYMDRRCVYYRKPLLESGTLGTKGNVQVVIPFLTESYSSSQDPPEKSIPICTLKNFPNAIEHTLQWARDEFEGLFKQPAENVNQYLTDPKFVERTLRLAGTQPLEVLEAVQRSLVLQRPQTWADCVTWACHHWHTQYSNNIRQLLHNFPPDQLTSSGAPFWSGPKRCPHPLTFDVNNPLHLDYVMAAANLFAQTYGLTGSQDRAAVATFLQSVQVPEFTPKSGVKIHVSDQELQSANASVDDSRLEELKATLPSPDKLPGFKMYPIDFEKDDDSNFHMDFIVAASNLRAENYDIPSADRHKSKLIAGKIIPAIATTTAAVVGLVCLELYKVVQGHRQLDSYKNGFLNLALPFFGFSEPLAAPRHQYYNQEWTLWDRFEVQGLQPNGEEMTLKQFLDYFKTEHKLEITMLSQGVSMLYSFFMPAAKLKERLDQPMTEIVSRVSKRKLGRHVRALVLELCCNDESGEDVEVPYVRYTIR
Put plainly: In vitro enzyme inhibition assay: E1-mediated ubiquitin thioester transfer to E2 (band shift, silver stain). In kind it is biochemical. The note with it: for effect of nonionic detergent on inhibitory activity against UBA1: 0.01% Triton X-100 in assay buffer. As to the method: In vitro Enzyme Inhibition Assays: To assess an E2 hA peptide's inhibition of an E1 enzyme, an in vitro enzyme inhibition assay can be used, for example. The in vitro enzyme inhibition assay measures an E2 hA peptide's ability to inhibit conjugation of ubiquitin to E2 by E1. Briefly, recombinant E1 (e.g., UBA1), recombinant E2 (e.g., UBE2A), ubiquitin, and Mg-ATP are combined in the presence of an E2 hA peptide or vehicle control (e.g., 1% DMSO) for a period of time (e.g., 30 minutes) at room temperature in a buffer containing, e.g., 50 mM NaCl, 50 mM HEPES pH 7.5. Control reaction includes no E1. Reactions are quenched by addition of SDS-containing loading dye and samples are resolved on a gel (e.g., a 4-12% Bis-Tris protein gel) under nonreducing conditions. Proteins on the gel are visualized via, e.g., silver stain. Conjugation of ubiquitin to E2 by E1 is monitored by conversion of free E2 (˜17 kDa) to E2˜ubiquitin conjugate (˜26 kDa).
Control reaction included no E1 enzyme. Reactions were quenched by addition of SDS-containing loading dye and samples were resolved on a 4-12% Bis-Tris protein gel under nonreducing conditions. Proteins were visualized via silver stain. Conjugation of ubiquitin to E2 by E1 was monitored by conversion of free E2 (17 kDa) to E2˜ubiquitin conjugate (26 kDa).
The ability of the peptides to inhibit E1-mediated thioester transfer to E2 was evaluated. Human E1 activating enzyme UBA1 (10 nM), UbcH5b E2 enzyme (150 nM), ubiquitin (1 μM), and Mg-ATP (20 μM) were combined in the presence of stapled peptide at a range of concentrations or vehicle control (1% DMSO) for 45 minutes at room temperature in buffer containing 50 mM NaCl, 50 mM HEPES, 1 mM TCEP pH 7.5. Reactions were quenched by addition of SDS-containing loading dye and samples were resolved on a 4-12% Bis-Tris protein gel under nonreducing conditions. Proteins were visualized via silver stain. Conjugation of ubiquitin to E2 by E1 was monitored by conversion of free E2 (17 kDa) to E2˜ubiquitin conjugate (26 kDa). Inhibition percentage was calculated from densitometry of silver stain images.
Streptavidin-biotin pull-down assays: For recombinant protein pull-downs, 10 pmol recombinant human UBA1 was incubated with 5 nmol C-terminally biotinylated SAH-UBE2A or DMSO vehicle control in a total volume of 1 mL binding buffer (50 mM NaCl, 20 mM HEPES, pH 7.4, 5 mM DTT) for 1.5 hours at 4° C. 30 μL of pre-equilibrated streptavidin agarose beads were then added and incubated for an additional 1.5 hours at 4° C. The beads were pelleted by centrifugation and washed three times with NP-40 buffer (20 mM HEPES, pH 7.4, 50 mM NaCl, 5 mM DTT, 0.5% [v/v] NP-40) before eluting the protein sample from the beads by heating at 70° C. for 10 min in 3×SDS loading buffer. Samples were subjected to electrophoresis and silver staining (Pierce 24612). For pull-down from cellular lysates, 0.75 mg HeLa cell lysate was incubated with 5 nmol C-terminally biotinylated SAH-UBE2A or DMSO vehicle control in a total volume of 1 mL binding buffer (50 mM NaCl, 20 mM HEPES, pH 7.4, 5 mM DTT) containing protease-phosphatase inhibitor cocktail for 2 hours at 4° C. 30 μL of pre-equilibrated streptavidin agarose beads (ThermoFisher 20357) were then added and incubated for an additional 1.5 hours at 4° C. The beads were pelleted by centrifugation and washed three times with NP-40 buffer (20 mM HEPES, pH 7.4, 50 mM NaCl, 5 mM DTT, 0.5% [v/v] NP-40) before eluting the protein sample from the beads by heating at 70° C. for 10 min in 3×SDS loading buffer. Proteins were separated by SDS-PAGE gel electrophoresis and detected by western blot against UBE1 (Abcam ab34711). In vitro Enzyme Inhibition Assays: Recombinant human E1 activating enzyme UBA1 (10 nM), E2 enzyme (150 nM), ubiquitin (1 μM), and Mg-ATP (20 μM) are combined in the presence of peptide or vehicle control (1% DMSO) for 45 minutes at room temperature in buffer containing 50 mM NaCl, 50 mM HEPES pH 7.5. Control reaction includes no E1 enzyme. […]

SMILES strings stand for the structures. “Also recorded” adds a separate entry of the source. Bridge positions count the residues as written; N and C are the ends. Square brackets hold non-standard residues; d marks the D form. Peptide text beside a SMILES is read from it. R8 = C=CCCCCCC[C@@](C)(N)C(=O)O; S5 = C=CCCC[C@](C)(N)C(=O)O; Nle = CCCC[C@H](N)C(=O)O

For the compound `CCCC[C@H](NC(C)=O)C(=O)N[C@@H](CO)C(=O)N[C@H](C(=O)N1CCC[C@H]1C(=O)N[C@]1(C)CCCCCCC=CCCC[C@@](C)(C(=O)N[C@@H](Cc2ccccc2)C(=O)N[C@@H](CCCCN)C(=O)N[C@@H](CCCNC(=N)N)C(=O)N[C@@H](CC(C)C)C(=O)N[C@@H](CCC(N)=O)C(N)=O)NC(=O)[C@H](CCCNC(=N)N)NC(=O)[C@H](CCCC)NC(=O)[C@H](CC(C)C)NC(=O)[C@H](CCCNC(=N)N)NC(=O)[C@H](CCCNC(=N)N)NC(=O)[C@H](CCCNC(=N)N)NC1=O)[C@@H](C)O` [SAH-UBE2A-11, BSTPX1RRRLBRX2FKRLQ] (Ac-[Nle]STP[R8]RRRL[Nle]R[S5]FKRLQ-NH2; staple 5-12), the “effect of nonionic detergent on inhibitory activity against UBA1” value is on record as “not affected at all by the presence of non-ionic detergent”. Also, for the setting “listed as SAH-UBE2A”, the “effect of nonionic detergent on inhibitory activity against UBA1” value is “no effect on the inhibitory activity of SAH-UBE2A”. Moreover, the “inhibition of E1-mediated thioester transfer to a variety of human E2 enzymes” value (panel of human E2 enzymes (UBE2A, UBE2B, UBE2C, UBE2D1-4 etc.)) is reported as “inhibited E1-mediated thioester transfer to all human E2 enzymes tested; also recorded: inhibits E1 thioester transfer activity”. In addition, where the note is “range of peptide concentrations, UbcH5b E2 enzyme, 45 minutes”, the “inhibition of E1-mediated thioester transfer to E2, dose response” value is on record as “inhibited E1-mediated thioester transfer to E2 in a dose-dependent manner; also recorded: most potent activity; also recorded: dose-dependently inhibit E1-mediated thioester transfer to E2”.
